Assay results taken from publication PMC6197744, “Triazolo[4,5-d]pyrimidines as Validated General Control Nonderepressible 2 (GCN2) Protein Kinase Inhibitors Reduce Growth of Leukemia Cells” (Computational and Structural Biotechnology Journal, 2018).

Legend:
Assay in all cases: NCI-60 one-dose screen
Format in all cases: cell-based
MOLT-4 = conditions: Homo sapiens; Leukemia MOLT-4, 10 μM, 48 h; read-out: Percent growth inhibition
Protocol: (§1) Compounds 1 and 2 were submitted to the National Cancer Institute NCI-60 Tumor Cell Screening Program (NCI number 800,700 and 800,701, respectively) for evaluation against the 60 cell line NCI panel at a single dose of 10 μM. […] Leukemia and breast cancer cell lines comprised the only cancer groups that were uniformly sensitive to both 1 and 2, with the greatest sensitivity seen in the leukemia SR cell line.
(§2) Compounds 1 and 2 were submitted to the NCI for growth inhibition screening against its panel of 60 cancer cell lines. The NCI screening protocol has extensively been described [[53], [54], [55], [56]]. Briefly, cancerous cell lines were grown in RPMI 1640 medium containing 5% fetal bovine serum and 2 mM L-glutamine. Depending on the doubling time of each cell line, 5000–40,000 cells were seeded in 96-well plates for 24 h. Cells were then treated with compounds 1 or 2 at a concentration of 10 μM and incubated for 48 h at 37 °C in a humidified atmosphere containing 5% CO2. The cells were then fixed and stained with sulforhodamine B (SRB) to determine their viability. The data were analyzed using a program called COMPARE to determine the percent growth inhibition of each compound.

HCC-2998 = conditions: Homo sapiens; Colon HCC-2998, 10 μM, 48 h; read-out: Percent growth inhibition
Protocol: as §1, §2

SW-620 = conditions: Homo sapiens; Colon SW-620, 10 μM, 48 h; read-out: Percent growth inhibition
Protocol: as §1, §2

IGROV1 = conditions: Homo sapiens, IGROV-1; Ovarian IGROV1, 10 μM, 48 h; read-out: Percent growth inhibition
Protocol: as §1, §2

SR = conditions: Homo sapiens, 48 h, Leukemia SR, read-out: Percent growth inhibition
Protocol: as §1, §2

786-0 = conditions: Homo sapiens; Renal 786-0, 10 μM, 48 h; read-out: Percent growth inhibition
Protocol: as §1, §2

K-562 = conditions: Homo sapiens, K562; Leukemia K-562, 10 μM, 48 h; read-out: Percent growth inhibition
Protocol: as §1, §2

HT29 = conditions: Homo sapiens, HT-29, 48 h, Colon HT29, 10 μM, read-out: Percent growth inhibition
Protocol: as §1, §2

MCF7 = conditions: Homo sapiens; Breast MCF7, 10 μM, 48 h; read-out: Percent growth inhibition
Protocol: as §1, §2

HOP-62 = conditions: Homo sapiens; Non-Small Cell Lung HOP-62, 10 μM, 48 h; read-out: Percent growth inhibition
Protocol: as §1, §2

OVCAR-3 = conditions: Homo sapiens; Ovarian OVCAR-3, 10 μM, 48 h; read-out: Percent growth inhibition
Protocol: as §1, §2

SN12C = conditions: Homo sapiens, Renal SN12C, 48 h, read-out: Percent growth inhibition
Protocol: as §1, §2

CCRF-CEM = conditions: Homo sapiens, Leukemia CCRF-CEM, 48 h, read-out: Percent growth inhibition
Protocol: as §1, §2

LOXIMVI = conditions: Homo sapiens, LOX IMVI, Melanoma LOXIMVI, 48 h, read-out: Percent growth inhibition
Protocol: as §1, §2

HCT-15 = conditions: Homo sapiens; Colon HCT-15, 10 μM, 48 h; read-out: Percent growth inhibition
Protocol: as §1, §2

KM12 = conditions: Homo sapiens; Colon KM12, 10 μM, 48 h; read-out: Percent growth inhibition
Protocol: as §1, §2

MDA-MB-231 = conditions: Homo sapiens; Breast MDA-MB-231, 10 μM, 48 h; read-out: Percent growth inhibition
Protocol: as §1, §2

OVCAR-4 = conditions: Homo sapiens; Ovarian OVCAR-4, 10 μM, 48 h; read-out: Percent growth inhibition
Protocol: as §1, §2

RXF393 = conditions: Homo sapiens, RXF 393; Renal RXF393, 10 μM, 48 h; read-out: Percent growth inhibition
Protocol: as §1, §2

OVCAR-8 = conditions: Homo sapiens; Ovarian OVCAR-8, 10 μM, 48 h; read-out: Percent growth inhibition
Protocol: as §1, §2

EKVX = conditions: Homo sapiens, Non-Small Cell Lung EKVX, 48 h, read-out: Percent growth inhibition
Protocol: as §1, §2

SF-295 = conditions: Homo sapiens; CNS SF-295, 10 μM, 48 h; read-out: Percent growth inhibition
Protocol: as §1, §2

UACC-62 = conditions: Homo sapiens; Melanoma UACC-62, 10 μM, 48 h; read-out: Percent growth inhibition
Protocol: as §1, §2

RPMI-8226 = conditions: Homo sapiens; Leukemia RPMI-8226, 10 μM, 48 h; read-out: Percent growth inhibition
Protocol: as §1, §2

SF-268 = conditions: Homo sapiens; CNS SF-268, 10 μM, 48 h; read-out: Percent growth inhibition
Protocol: as §1, §2

With `CCn1cc(Nc2ncc3nnn(-c4ccc(C(=O)OC)cc4)c3n2)cn1` [Compound 1, Methyl 4-(5-((1-ethyl-1H-pyrazol-4-yl)amino)-3H-[1,2,3]triazolo[4,5-d]pyrimidin-3-yl)benzoate] the inhibition at 10 µM (MOLT-4) was 21.6%, the inhibition at 10 µM (HCC-2998) was -3.6% and the inhibition at 10 µM (SW-620) was -5.07%. It also gave an inhibition at 10 µM (IGROV1) of -16.8%, an inhibition at 10 µM (SR) of 43.4% and an inhibition at 10 µM (786-0) of -6.68%. For the same molecule, the inhibition at 10 µM (K-562) was 20.9%, the inhibition at 10 µM (HT29) was 47% and the inhibition at 10 µM (MCF7) was 11.6%. The inhibition at 10 µM (HOP-62) was 21.1%, the inhibition at 10 µM (OVCAR-3) was 8.48% and the inhibition at 10 µM (SN12C) was 1.94%. It also gave an inhibition at 10 µM (CCRF-CEM) of 39.5%, an inhibition at 10 µM (LOXIMVI) of 34.9% and an inhibition at 10 µM (HCT-15) of 11.2%. It also gave an inhibition at 10 µM (KM12) of 7.33%, an inhibition at 10 µM (MDA-MB-231) of 0.42% and an inhibition at 10 µM (OVCAR-4) of -12%. The inhibition at 10 µM (RXF393) was -4.13%, the inhibition at 10 µM (OVCAR-8) was 13.8% and the inhibition at 10 µM (EKVX) was -4.33%. The inhibition at 10 µM (SF-295) was -2.41%, the inhibition at 10 µM (UACC-62) was 5.19% and the inhibition at 10 µM (RPMI-8226) was 10.8%. It also gave an inhibition at 10 µM (SF-268) of 0.6%.
`CCOc1ccc(-n2nnc3cnc(Nc4cnn(CC)c4)nc32)cc1` [Compound 2, 3-(4-Ethoxyphenyl)-N-(1-ethyl-1H-pyrazol-4-yl)-3H-[1,2,3]triazolo[4,5-d]pyrimidin-5-amine] showed an inhibition at 10 µM (MOLT-4) of 23.2%, an inhibition at 10 µM (HCC-2998) of -2.67% and an inhibition at 10 µM (SW-620) of -17.3%. It also gave an inhibition at 10 µM (IGROV1) of 5.39%, an inhibition at 10 µM (SR) of 57.5% and an inhibition at 10 µM (786-0) of 21.7%. It also gave an inhibition at 10 µM (K-562) of 17.2%, an inhibition at 10 µM (HT29) of 39.7% and an inhibition at 10 µM (MCF7) of 24.2%. For the same molecule, the inhibition at 10 µM (HOP-62) was 15.7%, the inhibition at 10 µM (OVCAR-3) was 6.71% and the inhibition at 10 µM (SN12C) was 12.5%. It also gave an inhibition at 10 µM (CCRF-CEM) of 14%, an inhibition at 10 µM (LOXIMVI) of 45.7% and an inhibition at 10 µM (HCT-15) of 0.66%. For the same molecule, the inhibition at 10 µM (KM12) was 25.9%, the inhibition at 10 µM (MDA-MB-231) was 7.57% and the inhibition at 10 µM (OVCAR-4) was -14.7%. For the same molecule, the inhibition at 10 µM (RXF393) was 43.8%, the inhibition at 10 µM (OVCAR-8) was 21.2% and the inhibition at 10 µM (EKVX) was -5.32%. It also gave an inhibition at 10 µM (SF-295) of 3.75%, an inhibition at 10 µM (UACC-62) of 1.67% and an inhibition at 10 µM (RPMI-8226) of 17%. It also gave an inhibition at 10 µM (SF-268) of 12.7%.
